Assays:
C57B1/6J mice [1] = experiment: Changes in body weight of mice after a single subcutaneous injection of TCDD; assay type: in vivo; conditions: for Weight (body weight): at sacrifice
Experimental: (§1) Male C57B1/6J mice of 5 weeks old having the average weight of 18-22 g which had been bred in CRJ (Charles River in Japan) were purchased and used in this example as experimental animals. Those mice were acclimated under the constant breeding condition, i.e. the temperature of 24±1° C., the humidity of 60±10% and the light and darkness cycle of 12 hours, for one week and thereafter, utilized in the experiment.
(§2) The Experimental animals were supplied with Purina powdered feed (purchased from Hae Eun Trade) and supplied with water ad libitum. All the animals were weighed twice a week during experimentation.
(§3) 2,3,7,8-tetrachlorodibenzo-p-dioxin (TCDD) dissolved in toluene (purity of 95% or more as a result of gas chromatography analysis), manufactured by Chem. Services Inc. in USA, was volatilized with nitrogen to obtain powder. The obtained powder was dissolved in a mixed solvent containing acetone and corn oil with a volume ratio of 1:6. The resulting solution each containing 110, 27.5 and 6.9 μg/kg of TCDD was subcutaneously injected to mice at a volume of 5 ml per body weight. […] The mice were supplied with the feed from 10 days before (pre-administration) to 60 days after administration of TCDD (post-administration).
(§4) The results are expressed as Mean±Standard Deviation values. For statistical analysis of the body weight, feed and water uptake, biochemical findings, hematological findings and the weight of organ in an acute toxicity test, verification was performed by one way analysis of variance (ANOVA) in case of equal distribution. In case significance was recognized in ANOVA, the Student's t-test was performed in the levels of p<0.05 and p<0.01.

C57B1/6J mice [2] = experiment: Feed uptake of mice after a single subcutaneous injection of TCDD; assay type: in vivo; design: unit not given here
Experimental: as §1, §2, §3, §4

[3] = TCDD 110.0 μg/kg + UDCA 0.5 wt %, 50 days

C[C@H](CCC(=O)O)[C@H]1CC[C@H]2[C@@H]3[C@@H](O)C[C@@H]4C[C@H](O)CC[C@]4(C)[C@H]3CC[C@]12C [UDCA, 3α, 7β-dihydroxy-5β-cholanoic acid]
body weight (C57B1/6J mice [1]; TCDD 110.0 μg/kg + UDCA 0.125 wt %, 22 days): 18.44 ± 0.87 | body weight (C57B1/6J mice [1]; TCDD 110.0 μg/kg + UDCA 0.125 wt %, 32 days): 12.61 | Weight (body weight) (C57B1/6J mice [1]; TCDD 110.0 μg/kg + UDCA 0.125 wt %): 15.93 g | body weight (C57B1/6J mice [1]; TCDD 110.0 μg/kg + UDCA 0.25 wt %, 0 day): 19.65 ± 0.44 | body weight (C57B1/6J mice [1]; TCDD 110.0 μg/kg + UDCA 0.25 wt %, 12 days): 20.64 ± 0.50 | body weight (C57B1/6J mice [1]; TCDD 110.0 μg/kg + UDCA 0.25 wt %, 22 days): 19.69 ± 1.03 | body weight (C57B1/6J mice [1]; TCDD 110.0 μg/kg + UDCA 0.25 wt %, 32 days): 18.78 ± 1.14 | body weight (C57B1/6J mice [1]; TCDD 110.0 μg/kg + UDCA 0.25 wt %, 39 days): 14.26 | body weight (C57B1/6J mice [1]; TCDD 110.0 μg/kg + UDCA 0.25 wt %, 50 days): 14.85 | body weight (C57B1/6J mice [1]; TCDD 110.0 μg/kg + UDCA 0.25 wt %, 59 days): 17.10 | Weight (body weight) (C57B1/6J mice [1]; TCDD 110.0 μg/kg + UDCA 0.25 wt %): 18.53 ± 3.79 g | body weight (C57B1/6J mice [1]; TCDD 110.0 μg/kg + UDCA 0.5 wt %, 0 day): 19.71 ± 0.14 | body weight (C57B1/6J mice [1]; TCDD 110.0 μg/kg + UDCA 0.5 wt %, 12 days): 20.52 ± 0.32 | body weight (C57B1/6J mice [1]; TCDD 110.0 μg/kg + UDCA 0.5 wt %, 22 days): 21.15 ± 0.82 | body weight (C57B1/6J mice [1]; TCDD 110.0 μg/kg + UDCA 0.5 wt %, 32 days): 20.76 ± 1.04 | body weight (C57B1/6J mice [1]; TCDD 110.0 μg/kg + UDCA 0.5 wt %, 39 days): 19.81 ± 1.37 | body weight (C57B1/6J mice [1]; [3]): 18.19 ± 1.80 | body weight (C57B1/6J mice [1]; TCDD 110.0 μg/kg + UDCA 0.5 wt %, 59 days): 18.53 ± 1.59 | feed uptake (C57B1/6J mice [2]; TCDD 6.9 μg/kg + UDCA 0.125 wt %, 10 days): 4.64 ± 0.73 | feed uptake (C57B1/6J mice [2]; TCDD 6.9 μg/kg + UDCA 0.125 wt %, 20 days): 4.55 ± 0.44 | feed uptake (C57B1/6J mice [2]; TCDD 6.9 μg/kg + UDCA 0.125 wt %, 30 days): 3.83 ± 0.36 | feed uptake (C57B1/6J mice [2]; TCDD 6.9 μg/kg + UDCA 0.125 wt %, 40 days): 3.83 ± 0.36 | feed uptake (C57B1/6J mice [2]; TCDD 6.9 μg/kg + UDCA 0.125 wt %, 50 days): 3.19 ± 0.13 | feed uptake (C57B1/6J mice [2]; TCDD 6.9 μg/kg + UDCA 0.125 wt %, 60 days): 2.59 ± 0.23 | feed uptake (C57B1/6J mice [2]; TCDD 6.9 μg/kg + UDCA 0.25 wt %, 10 days): 4.39 ± 0.79 | feed uptake (C57B1/6J mice [2]; TCDD 6.9 μg/kg + UDCA 0.25 wt %, 20 days): 4.86 ± 0.90 | feed uptake (C57B1/6J mice [2]; TCDD 6.9 μg/kg + UDCA 0.25 wt %, 30 days): 3.78 ± 0.57 | feed uptake (C57B1/6J mice [2]; TCDD 6.9 μg/kg + UDCA 0.25 wt %, 40 days): 3.78 ± 0.57 | feed uptake (C57B1/6J mice [2]; TCDD 6.9 μg/kg + UDCA 0.25 wt %, 50 days): 3.18 ± 0.56 | feed uptake (C57B1/6J mice [2]; TCDD 6.9 μg/kg + UDCA 0.25 wt %, 60 days): 2.90 ± 0.30 | feed uptake (C57B1/6J mice [2]; TCDD 6.9 μg/kg + UDCA 0.5 wt %, 10 days): 4.48 ± 0.67 | feed uptake (C57B1/6J mice [2]; TCDD 6.9 μg/kg + UDCA 0.5 wt %, 20 days): 4.00 ± 1.11 | feed uptake (C57B1/6J mice [2]; TCDD 6.9 μg/kg + UDCA 0.5 wt %, 30 days): 4.66 ± 0.67 | feed uptake (C57B1/6J mice [2]; TCDD 6.9 μg/kg + UDCA 0.5 wt %, 40 days): 4.66 ± 0.67 | feed uptake (C57B1/6J mice [2]; TCDD 6.9 μg/kg + UDCA 0.5 wt %, 50 days): 3.12 ± 0.40 | feed uptake (C57B1/6J mice [2]; TCDD 6.9 μg/kg + UDCA 0.5 wt %, 60 days): 3.35 ± 1.56 | feed uptake (C57B1/6J mice [2]; TCDD 27.5 μg/kg + UDCA 0.125 wt %, 10 days): 4.15 ± 0.64 | feed uptake (C57B1/6J mice [2]; TCDD 27.5 μg/kg + UDCA 0.125 wt %, 20 days): 3.85 ± 0.43 | feed uptake (C57B1/6J mice [2]; TCDD 27.5 μg/kg + UDCA 0.125 wt %, 30 days): 3.99 ± 0.34 | feed uptake (C57B1/6J mice [2]; TCDD 27.5 μg/kg + UDCA 0.125 wt %, 40 days): 3.72 ± 0.21 | feed uptake (C57B1/6J mice [2]; TCDD 27.5 μg/kg + UDCA 0.125 wt %, 50 days): 2.90 ± 0.98 | feed uptake (C57B1/6J mice [2]; TCDD 27.5 μg/kg + UDCA 0.125 wt %, 60 days): 2.96 ± 0.29 | feed uptake (C57B1/6J mice [2]; TCDD 27.5 μg/kg + UDCA 0.25 wt %, 10 days): 4.07 ± 0.40 | feed uptake (C57B1/6J mice [2]; TCDD 27.5 μg/kg + UDCA 0.25 wt %, 20 days): 3.41 ± 0.71 | feed uptake (C57B1/6J mice [2]; TCDD 27.5 μg/kg + UDCA 0.25 wt %, 30 days): 3.59 ± 0.38 | feed uptake (C57B1/6J mice [2]; TCDD 27.5 μg/kg + UDCA 0.25 wt %, 40 days): 3.32 ± 0.39 | feed uptake (C57B1/6J mice [2]; TCDD 27.5 μg/kg + UDCA 0.25 wt %, 50 days): 3.16 ± 0.24 | feed uptake (C57B1/6J mice [2]; TCDD 27.5 μg/kg + UDCA 0.25 wt %, 60 days): 3.10 ± 0.77 | feed uptake (C57B1/6J mice [2]; TCDD 27.5 μg/kg + UDCA 0.5 wt %, 10 days): 4.31 ± 1.49 | feed uptake (C57B1/6J mice [2]; TCDD 27.5 μg/kg + UDCA 0.5 wt %, 20 days): 4.67 ± 1.13 | feed uptake (C57B1/6J mice [2]; TCDD 27.5 μg/kg + UDCA 0.5 wt %, 30 days): 3.99 ± 0.36 | feed uptake (C57B1/6J mice [2]; TCDD 27.5 μg/kg + UDCA 0.5 wt %, 40 days): 3.49 ± 0.57 | feed uptake (C57B1/6J mice [2]; TCDD 27.5 μg/kg + UDCA 0.5 wt %, 50 days): 3.18 ± 0.55 | feed uptake (C57B1/6J mice [2]; TCDD 27.5 μg/kg + UDCA 0.5 wt %, 60 days): 3.17 ± 0.49 | feed uptake (C57B1/6J mice [2]; TCDD 110.0 μg/kg + UDCA 0.125 wt %, 10 days): 3.77 ± 0.43 | feed uptake (C57B1/6J mice [2]; TCDD 110.0 μg/kg + UDCA 0.125 wt %, 20 days): 3.64 ± 1.16 | feed uptake (C57B1/6J mice [2]; TCDD 110.0 μg/kg + UDCA 0.125 wt %, 30 days): 2.94 ± 0.64 | feed uptake (C57B1/6J mice [2]; TCDD 110.0 μg/kg + UDCA 0.125 wt %, 40 days): 1.99 ± 0.58 | feed uptake (C57B1/6J mice [2]; TCDD 110.0 μg/kg + UDCA 0.25 wt %, 10 days): 3.65 ± 0.33 | feed uptake (C57B1/6J mice [2]; TCDD 110.0 μg/kg + UDCA 0.25 wt %, 20 days): 3.09 ± 0.44 | feed uptake (C57B1/6J mice [2]; TCDD 110.0 μg/kg + UDCA 0.25 wt %, 30 days): 3.23 ± 0.55 | feed uptake (C57B1/6J mice [2]; TCDD 110.0 μg/kg + UDCA 0.25 wt %, 40 days): 3.06 ± 1.89 | feed uptake (C57B1/6J mice [2]; TCDD 110.0 μg/kg + UDCA 0.5 wt %, 10 days): 3.87 ± 0.57 | feed uptake (C57B1/6J mice [2]; TCDD 110.0 μg/kg + UDCA 0.5 wt %, 20 days): 3.77 ± 0.62 | feed uptake (C57B1/6J mice [2]; TCDD 110.0 μg/kg + UDCA 0.5 wt %, 30 days): 3.39 ± 0.24 | feed uptake (C57B1/6J mice [2]; TCDD 110.0 μg/kg + UDCA 0.5 wt %, 40 days): 2.72 ± 0.72 | feed uptake (C57B1/6J mice [2]; [3]): 2.19 ± 0.22 | feed uptake (C57B1/6J mice [2]; TCDD 110.0 μg/kg + UDCA 0.5 wt %, 60 days): 2.05 ± 0.62

Reference: patent US20040029965A1, “Formulations for reducing or eliminating toxicity of enviromental hormones containing ursodeoxycholic acid” (priority 2000, published 2004)
